Source: patent US9931679B2, “Method for cleaning hard surfaces” (KIMBERLY-CLARK WORLDWIDE, INC., priority 2013, dated 2018)

Tested on: Pseudomonas aeruginosa (ATCC 27853)
Test: Zone of Inhibition Test (AATCC 147-1998, modified)
Assay type: cell-based
Details: diameter of inhibited colony formation; 1.5 by 1.5 cm test material on inoculated agar plate, 48 hours at ambient temperature
Description: Zone of inhibition testing with a variety of gram negative and gram positive bacteria was performed. The test material was brought into contact with a known amount of test microorganisms on an agar plate for 48 hours at ambient temperature. At the end of the contact time the diameter of inhibited colony formation (zone of inhibition) surrounding the test material was measured. […] Referenced method AATCC 147-1998 “Antibacterial Activity Assessment of Textile Materials: Parallel Streak Method” with changes for following Zone of Inhibition procedure (AATCC is “American Association of Textile Chemists and Colorists” located in Research Triangle Park, N.C.): Organisms used in this study were Escherichia coli (ATCC 11229)/Staphylococcus aureus (ATCC 6538)/Pseudomonas aeruginosa (ATCC 27853) (ATCC is “American Type Culture Collection” an organization in Manassas, Va.). Washed cells were diluted in Butterfield's Phosphate buffer to a target titer of approximately 10^8 colony forming units (CFU)/mL. Agar plates for testing were brought to room temperature prior to inoculation. A sterile applicator swab was placed in cell suspension and excess fluid was expressed using the side of the centrifuge tube. […] At the end of the contact time, the diameter of inhibited colony formation (zone of inhibition) surrounding the test material was measured.

SMILES: CN[C@H](CC(C)C)C(=O)N[C@H]1C(=O)N[C@@H](CC(N)=O)C(=O)N[C@H]2C(=O)N[C@H]3C(=O)N[C@H](C(=O)N[C@H](C(=O)O)c4cc(O)cc(O)c4-c4cc3ccc4O)[C@H](O)c3ccc(c(Cl)c3)Oc3cc2cc(c3O[C@@H]2O[C@H](CO)[C@@H](O)[C@H](O)[C@H]2O[C@H]2C[C@](C)(N)[C@H](O)[C@H](C)O2)Oc2ccc(cc2Cl)[C@H]1O [Positive Control, vancomycin]
- P. aeroginosa ZOI* (cm): 1.9 cm
